In US9879303B2, “Chromogenic glucuronidase substrates and uses” (Glycosynth Limited, priority 2013, dated 2018):
Structures can show the parent of a compound that is named as a salt.

Assays:
[1] = test system: Candida albicans ATCC 90028; test: multi-point inoculation onto Columbia agar plates; further: key: ++ means strong colour; + means less colour than ++; − means no colour; type: cell-based; conditions: substrate 300 mg/L, FAC 500 mg/L, 18 h at 37° C. in air
Description: (§1) The specificity of action of both DHN-β-D-glucuronide (2) and of catechol-β-D-glucuronide (1), as well as their 6′-methyl esters (4 and 6), was first established using multi-point inoculation of 20 different microbial strains onto Columbia agar plates. The strains chosen represented species commonly encountered in diagnostic microbiology. The substrates were incorporated into the agar at a concentration of 300 mg/L with an iron salt, ferric ammonium citrate, (hereinafter known as FAC) at 500 mg/L. The plates were incubated for 18 h at 37° C. in air.

[2] = test system: Enterobacter cloacae NCTC 11936; test: multi-point inoculation onto Columbia agar plates; further: key: ++ means strong colour; + means less colour than ++; − means no colour; type: cell-based; conditions: substrate 300 mg/L, FAC 500 mg/L, 18 h at 37° C. in air
Description: as §1

[3] = test system: Klebsiella pneumoniae NCTC 9528; test: multi-point inoculation onto Columbia agar plates; further: key: ++ means strong colour; + means less colour than ++; − means no colour; type: cell-based; conditions: substrate 300 mg/L, FAC 500 mg/L, 18 h at 37° C. in air
Description: as §1

[4] = test system: Serratia marcescens NCTC 10211; test: multi-point inoculation onto Columbia agar plates; further: key: ++ means strong colour; + means less colour than ++; − means no colour; type: cell-based; conditions: substrate 300 mg/L, FAC 500 mg/L, 18 h at 37° C. in air
Description: as §1

[5] = test system: Bacillus subtilis NCTC 9372; test: multi-point inoculation onto Columbia agar plates; further: key: ++ means strong colour; + means less colour than ++; − means no colour; type: cell-based; conditions: substrate 300 mg/L, FAC 500 mg/L, 18 h at 37° C. in air
Description: as §1

[6] = test system: Enterococcus faecium NCTC 7171; test: multi-point inoculation onto Columbia agar plates; further: key: ++ means strong colour; + means less colour than ++; − means no colour; type: cell-based; conditions: substrate 300 mg/L, FAC 500 mg/L, 18 h at 37° C. in air
Description: as §1

[7] = test system: Acinetobacter baumanaii NCTC 19606; test: multi-point inoculation onto Columbia agar plates; further: key: ++ means strong colour; + means less colour than ++; − means no colour; type: cell-based; conditions: substrate 300 mg/L, FAC 500 mg/L, 18 h at 37° C. in air
Description: as §1

[8] = test system: Streptococcus pyogenes NCTC 8306; test: multi-point inoculation onto Columbia agar plates; further: key: ++ means strong colour; + means less colour than ++; − means no colour; type: cell-based; conditions: substrate 300 mg/L, FAC 500 mg/L, 18 h at 37° C. in air
Description: as §1

[9] = test system: Providencia rettgeri NCTC 7475; test: multi-point inoculation onto Columbia agar plates; further: key: ++ means strong colour; + means less colour than ++; − means no colour; type: cell-based; conditions: substrate 300 mg/L, FAC 500 mg/L, 18 h at 37° C. in air
Description: as §1

[10] = test system: Listeria monocytogenes NCTC 11994; test: multi-point inoculation onto Columbia agar plates; further: key: ++ means strong colour; + means less colour than ++; − means no colour; type: cell-based; conditions: substrate 300 mg/L, FAC 500 mg/L, 18 h at 37° C. in air
Description: as §1

[11] = test system: Yersinia enterocolitica NCTC 11176; test: multi-point inoculation onto Columbia agar plates; type: cell-based; conditions: substrate 300 mg/L, FAC 500 mg/L, 18 h at 37° C. in air
Description: as §1

[12] = test system: Staphylococcus epidermidis NCTC 11047; test: multi-point inoculation onto Columbia agar plates; further: key: ++ means strong colour; + means less colour than ++; − means no colour; type: cell-based; conditions: substrate 300 mg/L, FAC 500 mg/L, 18 h at 37° C. in air
Description: as §1

[13] = test system: Candida glabrata NCPF 3943; test: multi-point inoculation onto Columbia agar plates; further: key: ++ means strong colour; + means less colour than ++; − means no colour; type: cell-based; conditions: substrate 300 mg/L, FAC 500 mg/L, 18 h at 37° C. in air
Description: as §1

[14] = test system: Escherichia coli NCTC 10418; test: multi-point inoculation onto Columbia agar plates; on colour: key: ++ means strong colour; + means less colour than ++; − means no colour; type: cell-based; conditions: for intensity of the colour / performance compared with the other substrates: comparison in words, Columbia agar with FAC; for colour: substrate 300 mg/L, FAC 500 mg/L, 18 h at 37° C. in air
Description: as §1

[15] = test system: Salmonella typhimurium NCTC 74; test: multi-point inoculation onto Columbia agar plates; further: key: ++ means strong colour; + means less colour than ++; − means no colour; type: cell-based; conditions: substrate 300 mg/L, FAC 500 mg/L, 18 h at 37° C. in air
Description: as §1

[16] = test system: Enterococcus faecalis NCTC 775; test: multi-point inoculation onto Columbia agar plates; further: key: ++ means strong colour; + means less colour than ++; − means no colour; type: cell-based; conditions: substrate 300 mg/L, FAC 500 mg/L, 18 h at 37° C. in air
Description: as §1

[17] = test system: Burkholderia cepacia NCTC 10931; test: multi-point inoculation onto Columbia agar plates; type: cell-based; conditions: substrate 300 mg/L, FAC 500 mg/L, 18 h at 37° C. in air
Description: as §1

[18] = test system: Pseudomonas aeruginosa NCTC 10662; test: multi-point inoculation onto Columbia agar plates; further: key: ++ means strong colour; + means less colour than ++; − means no colour; type: cell-based; conditions: substrate 300 mg/L, FAC 500 mg/L, 18 h at 37° C. in air
Description: as §1

[19] = test system: Staphylococcus aureus (MRSA) NCTC 11939; test: multi-point inoculation onto Columbia agar plates; further: key: ++ means strong colour; + means less colour than ++; − means no colour; type: cell-based; conditions: substrate 300 mg/L, FAC 500 mg/L, 18 h at 37° C. in air
Description: as §1

[20] = test system: Staphylococcus aureus NCTC 6571; test: multi-point inoculation onto Columbia agar plates; further: key: ++ means strong colour; + means less colour than ++; − means no colour; type: cell-based; conditions: substrate 300 mg/L, FAC 500 mg/L, 18 h at 37° C. in air
Description: as §1

[21] = test system: 20 different microbial strains; test: specificity of action on 20 different microbial strains, Columbia agar; type: cell-based; conditions: 19 organisms other than E. coli NCTC 10418, FAC
Description: as §1
Of the 20 strains, only the β-D-glucuronidase-positive strain of E. coli, (E. coli NCTC 10418) was able to hydrolyse the substrates. This organism generated diffuse, purple-brown colonies with the catechol substrates and diffuse, maroon colonies with the DHN substrates. Essentially identical results were obtained if other iron salts (e.g. iron(II) gluconate, iron(II) acetate, iron(II) citrate, iron(II) acetylacetonate and iron(III) acetylacetonate) were substituted in place of FAC. The iron compound can be either iron(II) (i.e. ferrous) or iron(III) (i.e. ferric). Both types of compound work equally, and the coloured chelates were still formed when the plates were incubated under anaerobic conditions, which is another useful feature of the present invention. The substrates may also be autoclaved at 116° C. for 20 minutes with no decrease in sensitivity. It will be appreciated that the media and the reagents will all contain at least traces of iron compounds. […] In contrast, supplementing the growth media with compounds of other metals gave either no coloured endpoint or an extremely poor one to visualise. […] Therefore the latter substrates were preferred for more extensive evaluation. […] For convenience, further evaluation of catechol-β-D-glucuronide and DHN-β-D-glucuronide was conducted with the CHA salt forms only (1 and 2b). In the present invention the counter ion of the glucuronide is not considered to be of special significance. For acidic enzyme substrates (including glucuronides), a variety of different counter ions, both inorganic and organic, are well known in the prior art.

SMILES	colour [1]	colour [2]	colour [3]	colour [4]	colour [5]	colour [6]	colour [7]	colour [8]	colour [9]	colour [10]	colour [11]	colour [12]	colour [13]	intensity of the colour / performance compared with the other substrates [14]	colour [14]	colour [15]	colour [16]	colour [17]	colour [18]	melting point [°C]	further results
COC(=O)C1OC(Oc2cc3ccccc3cc2O)C(O)C(O)C1O [Compound 6, DHN-β-D-Glucuronide-6′-Methyl Ester]	−	−	−	−	−	−	−	−	−	−	−	−	−	noticeably inferior	+	−	−	−	−		colour [19]: −; colour [20]: −; result with the other 19 organisms [21]: uniformly negative
O=C(O)C1OC(Oc2cc3ccccc3cc2O)C(O)C(O)C1O (as salt: salt) [Compound 2b, DHN-β-D-Glucuronide CHA Salt]																				223 to 224	
O=C(O)C1OC(Oc2ccccc2O)C(O)C(O)C1O (as salt: salt) [Compound 1, Catechol β-D-Glucuronide CHA Salt]																				208 to 210	
COC(=O)C1OC(Oc2ccccc2O)C(OC(C)=O)C(OC(C)=O)C1OC(C)=O [Compound 3, Catechol 2′,3′,4′,-tri-O-acetyl β-D-glucuronide-6′-methyl ester]																				128 to 130	
COC(=O)C1OC(Oc2ccccc2O)C(O)C(O)C1O [Compound 4, Catechol β-D-Glucuronide-6′-Methyl Ester]	−	−	−	−	−	−	−	−	−	−	−	−	−	noticeably inferior	+	−	−	−	−		colour [19]: −; colour [20]: −; result with the other 19 organisms [21]: uniformly negative
COC(=O)C1OC(Oc2cc3ccccc3cc2O)C(OC(C)=O)C(OC(C)=O)C1OC(C)=O [Compound 5, DHN-2′,3′,4′-tri-O-acetyl-β-D-glucuronide-6-methyl ester]																				191 to 192	
O=C([O-])C1OC(Oc2cc3ccccc3cc2O)C(O)C(O)C1O.[Na+] [Compound 2a, DHN-β-D-Glucuronide Sodium Salt]	−	−	−	−	−	−	−	−	−	−	−	−	−	performed the same as its CHA salt (2b)	++	−	−	−	−	53 to 55	colour [19]: −; colour [20]: −; result with the other 19 organisms [21]: uniformly negative
